Experimental data published in ChEMBL document CHEMBL4396970, “Benzothiazole-based compounds as potent endothelial lipase inhibitors” (Bioorg Med Chem Lett, 2019).

Test system: not listed separately
Experiment: Permeability across apical to basolateral side in human Caco2 cells
Assay type: ADME, cell-based
Settings: Caco-2, read-out: permeability

Papp A→B | Structure (SMILES)
< 1.5 ×10⁻⁶ cm/s | CN(C)C(=O)c1cccc(-c2ccc3nc(C(C#N)C(=O)NCC(=O)NC4CC4)sc3c2)c1 (racemic)
< 1.5 ×10⁻⁶ cm/s | CN1CCN(C(=O)c2ccc(-c3ccc4nc(C(C#N)C(=O)NCC(=O)NC5CC5)sc4c3)cc2)CC1 (racemic)
< 1.5 ×10⁻⁶ cm/s | N#CC(C(=O)NCC(=O)NC1COC1)c1nc2ccc(-c3ccc(F)nc3)cc2s1 (racemic)

Target: Cytochrome P450 3A4 (Homo sapiens, UniProt P08684)
Experiment: Inhibition of CYP3A4 (unknown origin)
Assay type: ADME
Settings: not given

Sequence of Cytochrome P450 3A4 (P08684 whole entry): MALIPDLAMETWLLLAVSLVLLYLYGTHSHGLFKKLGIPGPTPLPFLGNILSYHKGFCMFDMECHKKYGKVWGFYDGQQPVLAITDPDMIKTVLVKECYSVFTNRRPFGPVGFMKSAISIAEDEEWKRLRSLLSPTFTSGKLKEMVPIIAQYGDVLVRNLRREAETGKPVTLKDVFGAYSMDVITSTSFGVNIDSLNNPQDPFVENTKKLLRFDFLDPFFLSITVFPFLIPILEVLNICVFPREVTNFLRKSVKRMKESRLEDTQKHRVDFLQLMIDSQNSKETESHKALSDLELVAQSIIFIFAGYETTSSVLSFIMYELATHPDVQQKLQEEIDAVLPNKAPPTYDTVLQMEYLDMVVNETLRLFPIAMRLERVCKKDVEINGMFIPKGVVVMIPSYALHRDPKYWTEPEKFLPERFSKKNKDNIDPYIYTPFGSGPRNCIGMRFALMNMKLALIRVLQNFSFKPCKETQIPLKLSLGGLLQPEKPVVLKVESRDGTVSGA

IC50 | Structure (SMILES)
> 18 µM | CN(C)C(=O)c1cccc(-c2ccc3nc(C(C#N)C(=O)NCC(=O)NC4CC4)sc3c2)c1 (racemic)
> 18 µM | CN1CCN(C(=O)c2ccc(-c3ccc4nc(C(C#N)C(=O)NCC(=O)NC5CC5)sc4c3)cc2)CC1 (racemic)
> 18 µM | N#CC(C(=O)NCC(=O)NC1COC1)c1nc2ccc(-c3ccc(F)nc3)cc2s1 (racemic)

Target: Cytochrome P450 2C19 (Homo sapiens, UniProt P33261)
Experiment: Inhibition of CYP2C19 (unknown origin)
Assay type: ADME
Settings: not given

Sequence of Cytochrome P450 2C19 (P33261 whole entry): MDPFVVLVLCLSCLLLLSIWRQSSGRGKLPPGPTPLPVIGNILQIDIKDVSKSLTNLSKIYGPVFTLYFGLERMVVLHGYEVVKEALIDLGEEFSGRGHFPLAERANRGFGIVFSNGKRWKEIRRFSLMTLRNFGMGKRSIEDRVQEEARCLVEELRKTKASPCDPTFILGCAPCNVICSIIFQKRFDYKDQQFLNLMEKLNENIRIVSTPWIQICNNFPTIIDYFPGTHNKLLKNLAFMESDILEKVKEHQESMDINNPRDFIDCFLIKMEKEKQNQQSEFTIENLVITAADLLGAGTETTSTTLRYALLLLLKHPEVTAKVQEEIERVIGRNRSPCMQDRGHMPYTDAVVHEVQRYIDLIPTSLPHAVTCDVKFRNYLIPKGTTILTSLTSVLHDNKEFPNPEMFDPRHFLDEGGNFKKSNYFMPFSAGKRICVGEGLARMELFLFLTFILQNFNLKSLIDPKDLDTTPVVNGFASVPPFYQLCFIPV

IC50 | Structure (SMILES)
> 18 µM | CN(C)C(=O)c1cccc(-c2ccc3nc(C(C#N)C(=O)NCC(=O)NC4CC4)sc3c2)c1 (racemic)
> 18 µM | CN1CCN(C(=O)c2ccc(-c3ccc4nc(C(C#N)C(=O)NCC(=O)NC5CC5)sc4c3)cc2)CC1 (racemic)
> 18 µM | N#CC(C(=O)NCC(=O)NC1COC1)c1nc2ccc(-c3ccc(F)nc3)cc2s1 (racemic)

Target: T1, Endothelial lipase (Homo sapiens, UniProt Q9Y5X9)
T1 sequence (Q9Y5X9 whole entry): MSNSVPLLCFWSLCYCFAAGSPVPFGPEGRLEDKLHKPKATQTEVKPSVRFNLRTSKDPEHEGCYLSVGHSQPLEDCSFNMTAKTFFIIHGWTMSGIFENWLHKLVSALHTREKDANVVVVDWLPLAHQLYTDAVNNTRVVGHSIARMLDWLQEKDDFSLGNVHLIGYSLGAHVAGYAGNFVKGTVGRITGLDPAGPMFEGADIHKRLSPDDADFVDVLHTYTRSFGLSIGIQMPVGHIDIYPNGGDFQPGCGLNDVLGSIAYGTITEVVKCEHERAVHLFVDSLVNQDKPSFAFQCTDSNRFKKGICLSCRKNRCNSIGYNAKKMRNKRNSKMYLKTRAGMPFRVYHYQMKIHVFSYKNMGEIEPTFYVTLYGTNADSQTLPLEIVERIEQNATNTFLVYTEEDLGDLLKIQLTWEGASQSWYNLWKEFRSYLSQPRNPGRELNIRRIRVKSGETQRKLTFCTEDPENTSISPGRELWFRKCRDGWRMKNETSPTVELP
Experiment: Inhibition of endothelial lipase in human serum
Assay type: cell-free
Settings: not given

IC50 | Structure (SMILES)
0.03 µM | CN(C)C(=O)c1cccc(-c2ccc3nc(C(C#N)C(=O)NCC(=O)NC4CC4)sc3c2)c1 (racemic)
0.03 µM | CN1CCN(C(=O)c2ccc(-c3ccc4nc(C(C#N)C(=O)NCC(=O)NC5CC5)sc4c3)cc2)CC1 (racemic)
0.05 µM | N#CC(C(=O)NCC(=O)NC1COC1)c1nc2ccc(-c3ccc(F)nc3)cc2s1 (racemic)

Target: Cytochrome P450 2C9 (Homo sapiens, UniProt P11712)
Experiment: Inhibition of CYP2C9 (unknown origin)
Assay type: ADME
Settings: not given

Sequence of Cytochrome P450 2C9 (P11712 whole entry): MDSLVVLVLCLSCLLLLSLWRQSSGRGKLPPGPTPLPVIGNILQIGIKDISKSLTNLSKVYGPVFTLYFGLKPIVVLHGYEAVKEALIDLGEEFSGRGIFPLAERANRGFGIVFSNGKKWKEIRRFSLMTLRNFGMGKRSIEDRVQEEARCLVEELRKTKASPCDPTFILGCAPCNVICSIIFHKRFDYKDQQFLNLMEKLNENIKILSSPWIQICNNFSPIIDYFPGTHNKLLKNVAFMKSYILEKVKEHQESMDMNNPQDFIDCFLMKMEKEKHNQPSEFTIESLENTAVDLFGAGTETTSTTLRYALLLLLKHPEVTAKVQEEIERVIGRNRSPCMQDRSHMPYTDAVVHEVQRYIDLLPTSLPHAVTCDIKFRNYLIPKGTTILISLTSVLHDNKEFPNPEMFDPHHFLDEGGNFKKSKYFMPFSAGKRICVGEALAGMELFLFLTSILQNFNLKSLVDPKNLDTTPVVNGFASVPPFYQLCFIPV

IC50 | Structure (SMILES)
> 18 µM | CN(C)C(=O)c1cccc(-c2ccc3nc(C(C#N)C(=O)NCC(=O)NC4CC4)sc3c2)c1 (racemic)
> 18 µM | CN1CCN(C(=O)c2ccc(-c3ccc4nc(C(C#N)C(=O)NCC(=O)NC5CC5)sc4c3)cc2)CC1 (racemic)
> 18 µM | N#CC(C(=O)NCC(=O)NC1COC1)c1nc2ccc(-c3ccc(F)nc3)cc2s1 (racemic)

Test system: not listed separately
Experiment: Permeability of compound at pH 5.0 by PAMPA
Assay type: ADME
Settings: read-out: permeability

Papp | Structure (SMILES)
8.4 ×10⁻⁶ cm/s | CN(C)C(=O)c1cccc(-c2ccc3nc(C(C#N)C(=O)NCC(=O)NC4CC4)sc3c2)c1 (racemic)
0.2 ×10⁻⁶ cm/s | CN1CCN(C(=O)c2ccc(-c3ccc4nc(C(C#N)C(=O)NCC(=O)NC5CC5)sc4c3)cc2)CC1 (racemic)
6.5 ×10⁻⁶ cm/s | N#CC(C(=O)NCC(=O)NC1COC1)c1nc2ccc(-c3ccc(F)nc3)cc2s1 (racemic)

Target: T2, Cytochrome P450 1A2 (Homo sapiens, UniProt P05177)
T2 sequence (P05177 whole entry): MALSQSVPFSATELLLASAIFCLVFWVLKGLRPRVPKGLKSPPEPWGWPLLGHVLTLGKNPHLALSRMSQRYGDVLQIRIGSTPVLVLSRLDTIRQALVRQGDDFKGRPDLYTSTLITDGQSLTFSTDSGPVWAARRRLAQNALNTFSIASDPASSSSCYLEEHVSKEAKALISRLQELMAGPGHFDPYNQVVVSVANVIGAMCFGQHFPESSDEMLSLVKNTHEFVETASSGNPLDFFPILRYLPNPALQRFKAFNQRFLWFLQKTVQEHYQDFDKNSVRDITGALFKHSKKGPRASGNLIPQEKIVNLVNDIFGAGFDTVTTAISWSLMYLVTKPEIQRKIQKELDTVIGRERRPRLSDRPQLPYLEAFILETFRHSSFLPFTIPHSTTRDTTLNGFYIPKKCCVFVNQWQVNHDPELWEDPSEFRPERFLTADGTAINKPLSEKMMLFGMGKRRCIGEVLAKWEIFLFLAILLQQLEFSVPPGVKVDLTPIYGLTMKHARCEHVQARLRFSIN
Experiment: Inhibition of CYP1A2 (unknown origin)
Assay type: ADME
Settings: not given

IC50 | Structure (SMILES)
> 18 µM | CN(C)C(=O)c1cccc(-c2ccc3nc(C(C#N)C(=O)NCC(=O)NC4CC4)sc3c2)c1 (racemic)
> 18 µM | CN1CCN(C(=O)c2ccc(-c3ccc4nc(C(C#N)C(=O)NCC(=O)NC5CC5)sc4c3)cc2)CC1 (racemic)
> 18 µM | N#CC(C(=O)NCC(=O)NC1COC1)c1nc2ccc(-c3ccc(F)nc3)cc2s1 (racemic)

Test system: not listed separately
Experiment: Permeability of compound at pH 7.4 by PAMPA
Assay type: ADME
Settings: read-out: permeability

Papp | Structure (SMILES)
0.3 ×10⁻⁶ cm/s | CN(C)C(=O)c1cccc(-c2ccc3nc(C(C#N)C(=O)NCC(=O)NC4CC4)sc3c2)c1 (racemic)
0.3 ×10⁻⁶ cm/s | CN1CCN(C(=O)c2ccc(-c3ccc4nc(C(C#N)C(=O)NCC(=O)NC5CC5)sc4c3)cc2)CC1 (racemic)
0.4 ×10⁻⁶ cm/s | N#CC(C(=O)NCC(=O)NC1COC1)c1nc2ccc(-c3ccc(F)nc3)cc2s1 (racemic)

Target: Cytochrome P450 2D6 (Homo sapiens, UniProt P10635)
Experiment: Inhibition of CYP2D6 (unknown origin)
Assay type: ADME
Settings: not given

Sequence of Cytochrome P450 2D6 (P10635 whole entry): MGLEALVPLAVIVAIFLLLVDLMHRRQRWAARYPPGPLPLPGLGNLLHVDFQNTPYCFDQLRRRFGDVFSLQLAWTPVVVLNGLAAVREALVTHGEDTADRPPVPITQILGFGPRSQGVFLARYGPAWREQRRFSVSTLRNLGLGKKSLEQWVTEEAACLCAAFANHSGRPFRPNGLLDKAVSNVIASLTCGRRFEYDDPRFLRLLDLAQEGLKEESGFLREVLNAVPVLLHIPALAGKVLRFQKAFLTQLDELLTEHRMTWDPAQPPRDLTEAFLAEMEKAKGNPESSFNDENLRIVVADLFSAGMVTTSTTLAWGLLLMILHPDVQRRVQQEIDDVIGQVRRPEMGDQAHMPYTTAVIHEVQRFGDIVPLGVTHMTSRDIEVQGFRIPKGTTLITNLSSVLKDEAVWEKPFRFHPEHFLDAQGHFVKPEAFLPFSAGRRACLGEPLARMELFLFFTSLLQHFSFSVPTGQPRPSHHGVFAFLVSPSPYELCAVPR

IC50 | Structure (SMILES)
> 18 µM | CN(C)C(=O)c1cccc(-c2ccc3nc(C(C#N)C(=O)NCC(=O)NC4CC4)sc3c2)c1 (racemic)
> 18 µM | CN1CCN(C(=O)c2ccc(-c3ccc4nc(C(C#N)C(=O)NCC(=O)NC5CC5)sc4c3)cc2)CC1 (racemic)
> 18 µM | N#CC(C(=O)NCC(=O)NC1COC1)c1nc2ccc(-c3ccc(F)nc3)cc2s1 (racemic)

Test system: not listed separately
Experiment: Metabolic stability in mouse liver microsomes assessed as parent compound remaining at 0.5 uM preincubated with compound followed by NADPH addition and measured after 10 mins
Assay type: ADME, Microsome
Settings: read-out: Stability

remaining at 10 min, 0.5 µM | Structure (SMILES)
99% | CN(C)C(=O)c1cccc(-c2ccc3nc(C(C#N)C(=O)NCC(=O)NC4CC4)sc3c2)c1 (racemic)
91% | CN1CCN(C(=O)c2ccc(-c3ccc4nc(C(C#N)C(=O)NCC(=O)NC5CC5)sc4c3)cc2)CC1 (racemic)
87% | N#CC(C(=O)NCC(=O)NC1COC1)c1nc2ccc(-c3ccc(F)nc3)cc2s1 (racemic)

Test system: not listed separately
Experiment: Metabolic stability in human liver microsomes assessed as parent compound remaining at 0.5 uM preincubated with compound followed by NADPH addition and measured after 10 mins
Assay type: ADME, Microsome
Settings: read-out: Stability

remaining at 10 min, 0.5 µM | Structure (SMILES)
76% | CN(C)C(=O)c1cccc(-c2ccc3nc(C(C#N)C(=O)NCC(=O)NC4CC4)sc3c2)c1 (racemic)
78% | CN1CCN(C(=O)c2ccc(-c3ccc4nc(C(C#N)C(=O)NCC(=O)NC5CC5)sc4c3)cc2)CC1 (racemic)
87% | N#CC(C(=O)NCC(=O)NC1COC1)c1nc2ccc(-c3ccc(F)nc3)cc2s1 (racemic)

Test system: not listed separately
Experiment: Permeability across basolateral to apical side in human Caco2 cells
Assay type: ADME, cell-based
Settings: Caco-2, read-out: permeability

Papp B→A | Structure (SMILES)
7.5 ×10⁻⁶ cm/s | CN(C)C(=O)c1cccc(-c2ccc3nc(C(C#N)C(=O)NCC(=O)NC4CC4)sc3c2)c1 (racemic)
3 ×10⁻⁶ cm/s | CN1CCN(C(=O)c2ccc(-c3ccc4nc(C(C#N)C(=O)NCC(=O)NC5CC5)sc4c3)cc2)CC1 (racemic)
34.9 ×10⁻⁶ cm/s | N#CC(C(=O)NCC(=O)NC1COC1)c1nc2ccc(-c3ccc(F)nc3)cc2s1 (racemic)

Target: T3, Hepatic triacylglycerol lipase (Homo sapiens, UniProt P11150)
T3 sequence (P11150 whole entry): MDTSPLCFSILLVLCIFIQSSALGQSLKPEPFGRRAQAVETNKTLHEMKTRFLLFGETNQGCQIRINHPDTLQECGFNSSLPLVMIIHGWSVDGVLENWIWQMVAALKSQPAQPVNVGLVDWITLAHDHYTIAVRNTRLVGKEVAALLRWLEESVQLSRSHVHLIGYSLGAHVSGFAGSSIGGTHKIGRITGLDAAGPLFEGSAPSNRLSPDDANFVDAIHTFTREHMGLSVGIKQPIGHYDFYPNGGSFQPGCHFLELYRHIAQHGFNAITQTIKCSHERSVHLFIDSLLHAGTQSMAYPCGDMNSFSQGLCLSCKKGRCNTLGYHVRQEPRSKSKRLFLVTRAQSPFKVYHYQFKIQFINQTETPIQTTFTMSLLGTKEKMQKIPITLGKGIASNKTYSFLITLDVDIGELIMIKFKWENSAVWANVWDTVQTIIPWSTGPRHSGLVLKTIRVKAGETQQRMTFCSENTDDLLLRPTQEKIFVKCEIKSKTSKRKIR
Experiment: Inhibition of hepatic lipase (unknown origin)
Settings: not given

IC50 | Structure (SMILES)
0.72 µM | CN(C)C(=O)c1cccc(-c2ccc3nc(C(C#N)C(=O)NCC(=O)NC4CC4)sc3c2)c1 (racemic)
1.8 µM | CN1CCN(C(=O)c2ccc(-c3ccc4nc(C(C#N)C(=O)NCC(=O)NC5CC5)sc4c3)cc2)CC1 (racemic)
0.19 µM | N#CC(C(=O)NCC(=O)NC1COC1)c1nc2ccc(-c3ccc(F)nc3)cc2s1 (racemic)
